According to publication PMC5986078 (Clinical cancer research : an official journal of the …, 2017):
Blank lines part the entries; values can stand above or below the compound they belong to.

Tests used:
[1] = system: GSC811 xenograft; test: Patient-derived GSC811 intracranial xenograft in mice; format: in vivo, mouse; settings: TMZ 4 mg/kg oral daily x5, onalespib 30 mg/kg iv day 16 and 19; vs vehicle
[2] = system: U251HF-GFP xenograft; test: Orthotopic intracranial zebrafish glioma xenograft; settings: TMZ 10 μM, onalespib 0.5 μM in fish water, 5-10 dpt
[3] = system: LN229 cells; test: WST-1 proliferation assay; format: cell-based; settings: Homo sapiens, LN-229, 72 h, read-out: IC50, proliferation (WST assay)
[4] = system: U251HF cells; test: WST-1 proliferation assay; format: cell-based; settings: Homo sapiens, 72 h, read-out: IC50, proliferation (WST assay)
[5] = system: A172 cells; test: WST-1 proliferation assay; format: cell-based; settings: Homo sapiens, A 172, 72 h, read-out: IC50, proliferation (WST assay)
[6] = system: LN229, U251HF and A172 cells; test: Apoptosis: annexin V/PI flow cytometry and caspase-3/7 activation; format: cell-based, human
[7] = system: LN229, U251HF and A172 cells; test: Colony forming assay; format: cell-based, human; settings: 0.4 μM for 24 h, colonies after 10 days
[8] = system: endothelial cells exposed to conditioned medium of LN229, U251HF and A172 cells; format: cell-based; settings: 0.4 μM for 24 h
[9] = system: U251HF, LN229 and A172 cells; test: Wound healing; format: cell-based, human; settings: 0.4 μM, 24 h, vs untreated controls
[10] = system: HSP90; test: HSP70 immunoblot as biomarker of HSP90 inhibition in glioma cell lines; format: cell-based, human; settings: LN229, U251HF, A172; 0.1, 0.2, 0.4 μM, 48 h
[11] = system: EGFR signaling pathway; test: Immunoblot of EGFR-AKT-ERK-S6 signaling in glioma cell lines; format: cell-based, human
[12] = system: EGFRvIII; test: Immunoblot in U87 cells expressing mutant EGFRvIII; format: cell-based, human; settings: 0.1, 0.2, 0.4 μM
[13] = system: HSP90 / EGFR pathway in GSC11 and GSC23; test: Immunoblot of HSP70 and EGFR pathway in GSC11 and GSC23 neurospheres; format: cell-based, human; settings: GSC11 and GSC23, 48 h
[14] = system: CD133, Nestin, Olig2; test: Stem cell marker expression in GSC11 and GSC23; format: cell-based, human
[15] = system: GSC2 (MES); test: WST-1 viability assay in glioma stem cells; format: cell-based, human; settings: GSC2, highest concentrations of onalespib
[16] = system: GSC20 (MES); test: WST-1 viability assay in glioma stem cells; format: cell-based, human; settings: GSC20, highest concentrations of onalespib
[17] = system: GSC23 (PN); test: WST-1 viability assay in glioma stem cells; format: cell-based, human; settings: GSC23, highest concentrations of onalespib
[18] = system: GSC11 (PN); test: WST-1 viability assay in glioma stem cells; format: cell-based, human; settings: GSC11, highest concentrations of onalespib
[19] = system: p-STAT3; test: p-STAT3 immunoblot in MES and PN GSC lines; format: cell-based, human; settings: 48 h
[20] = system: GSC lines; test: Transwell migration; format: cell-based, human
[21] = Brain and plasma pharmacokinetics by LC-MS/MS after iv bolus; format: in vivo, mouse; settings: 30 mg/kg iv single dose
[22] = system: HSP90; test: HSP70 immunohistochemistry of brain tissue as marker of HSP90 inhibition in vivo; parameters: species or system mouse; settings: 30 mg/kg iv, 0-24 h, vs vehicle treated mice

Structure (SMILES): Cn1nnc2c(C(N)=O)ncn2c1=O [TMZ, temozolomide]
survival [1]: did not extend survival | tumor burden [2]: moderate reductions

IC50 [4]: ≤ 250 nM | brain Cmax relative to plasma Cmax (fold lower) [21]: 4.7 fold | overall brain exposure versus plasma [21]: greater than of plasma
Structure (SMILES): CC(C)c1cc(C(=O)N2Cc3ccc(CN4CCN(C)CC4)cc3C2)c(O)cc1O [onalespib, (2,4-dihydroxy-5-isopropylphenyl)-[5-(4-methylpiperazin-1-ylmethyl)-1,3-dihydroisoindol-2-yl]methanone]
IC50 [3]: ≤ 250 nM | IC50 [5]: ≤ 250 nM | activation of caspase-3 and caspase-7 ([6]; increasing concentrations of onalespib): dose-dependent activation | percentage of annexin positive cells ([6]; increasing concentrations, 48 h): increase | colony formation (proliferative capacity) [7]: significantly inhibited | number of microtubules formed by endothelial cells in response to CM [8]: strongly inhibited | cell migration, wound healing [9]: reduced ability to migrate | HSP70 levels (marker of HSP90 inhibition) [10]: increase in HSP70 levels in cells in a dose-dependent manner | EGFR level, time course ([11]; 0.4 μM, up to 24 h): time-dependent decline | levels of EGFR, p-EGFR, phospho- and total AKT, ERK1/2 and S6 ([11]; U251HF, LN229, A172, 0.1-0.4 μM, 48 h): robust dose-dependent decrease | depletion of mutant EGFRvIII and downstream intermediates [12]: equally effective | HSP70 levels in GSC [13]: characteristic increase | levels of total EGFR, pEGFR in GSC [13]: steep declines | expression of stem cell markers CD133 and Nestin [14]: dose-dependent decrease | viability (lost to) [15]: 50% | viability (lost to) [16]: 50% | loss of viability [17]: 50% | loss of viability [18]: over 90% | p-STAT3 [19]: inhibited | invasive ability, transwell migration [20]: markedly decreased | onalespib level in brain tissue versus plasma ([21]; each time point from 2 h up to 24 h): higher in brain tissue compared to the plasma | percentage and intensity of HSP70 pixels in brain tissue [22]: increase | survival [1]: did not extend survival | survival [2]: extended survival | tumor burden [2]: moderate reductions
